# Laboratory results as given in ChEMBL document CHEMBL4138088, “Novel 1-(7-ethoxy-1-benzofuran-2-yl) substituted chalcone derivatives: Synthesis, characterization and anticancer activity” (Eur J Med Chem, 2017).
# Active and inactive are the calls of the source. No cut-off for these calls is given here.
# What was measured:
# [1] = test system: MCF7; experiment: Growth inhibition of human MCF7 cells at 20 uM after 72 hrs by ATP bioluminescence assay; assay type: functional, cell-based
# [2] = test system: MCF7; experiment: Growth inhibition of human MCF7 cells at 20 uM after 72 hrs by SRB assay; assay type: functional, cell-based
# [3] = test system: A549; experiment: Induction of apoptosis in human A549 cells assessed as early apoptotic cells at 20 uM after 48 hrs by caspase 3/7 staining-based flow cytometry (reference value: 1.70%); assay type: functional
# [4] = test system: PC-3; experiment: Induction of apoptosis in human PC3 cells assessed as late apoptotic cells at 20 uM after 48 hrs by annexin V-propidium iodide staining-based flow cytometry (reference value: 1.45%); assay type: functional
# [5] = test system: MCF7; experiment: Induction of morphological changes in human MCF7 cells assessed as reduction in cell density at 20 uM after 72 hrs by phase contrast microscopic method; assay type: functional, cell-based
# [6] = test system: MCF7; experiment: Induction of mitochondrial membrane depolarization in human MCF7 cells assessed as live cells at 20 uM after 48 hrs by 7-AAD/Muse mito-potential dye-based assay (reference value: 78.59%); assay type: functional
# [7] = test system: PC-3; experiment: Induction of apoptosis in human PC3 cells assessed as early apoptotic cells at 20 uM after 48 hrs by caspase 3/7 staining-based flow cytometry (reference value: 0.3%); assay type: functional
# [8] = test system: MCF7; experiment: Induction of apoptosis in human MCF7 cells assessed as late apoptotic cells at 20 uM after 48 hrs by caspase 3/7 staining-based flow cytometry (reference value: 10.80%); assay type: functional
# [9] = test system: A549; experiment: Induction of ROS generation in human A549 cells assessed as accumulation at M1 phase at 20 uM after 48 hrs flow cytometry (reference value: 97.60%); assay type: functional
# [10] = test system: A549; experiment: Growth inhibition of human A549 cells after 72 hrs by ATP bioluminescence assay; assay type: functional, cell-based; details: A549, 72 h
# [11] = test system: A549; experiment: Induction of apoptosis in human A549 cells assessed as viable cells at 20 uM after 48 hrs by annexin V-propidium iodide staining-based flow cytometry (reference value: 91.80%); assay type: functional; details: A549, 48 h, read-out: Activity
# [12] = test system: MCF7; experiment: Induction of apoptosis in human MCF7 cells assessed as necrotic cells at 20 uM after 48 hrs by annexin V-propidium iodide staining-based flow cytometry (reference value: 0.35%); assay type: functional
# [13] = test system: MCF7; experiment: Growth inhibition of human MCF7 cells after 72 hrs by ATP bioluminescence assay; assay type: functional, cell-based; details: MCF7, 72 h
# [14] = test system: MCF7; experiment: Induction of mitochondrial membrane depolarization in human MCF7 cells assessed as depolarized dead cells at 20 uM after 48 hrs by 7-AAD/Muse mito-potential dye-based assay (reference value: 12.43%); assay type: functional
# [15] = test system: A549; experiment: Induction of morphological changes in human A549 cells assessed as reduction in cell density at 20 uM after 72 hrs by phase contrast microscopic method; assay type: functional, cell-based
# [16] = test system: PC-3; experiment: Induction of morphological changes in human PC3 cells assessed as reduction in cell density at 20 uM after 72 hrs by phase contrast microscopic method; assay type: functional, cell-based
# [17] = test system: PC-3; experiment: Induction of mitochondrial membrane depolarization in human PC3 cells assessed as depolarized dead cells at 20 uM after 48 hrs by 7-AAD/Muse mito-potential dye-based assay (reference value: 2.05%); assay type: functional
# [18] = test system: PC-3; experiment: Growth inhibition of human PC3 cells at 20 uM after 72 hrs by ATP bioluminescence assay; assay type: functional, cell-based
# [19] = test system: PC-3; experiment: Induction of apoptosis in human PC3 cells assessed as viable cells at 20 uM after 48 hrs by annexin V-propidium iodide staining-based flow cytometry (reference value: 94.55%); assay type: functional; details: PC-3, 48 h, read-out: Activity
# [20] = test system: MCF7; experiment: Induction of apoptosis in human MCF7 cells assessed as early apoptotic cells at 20 uM after 48 hrs by annexin V-propidium iodide staining-based flow cytometry (reference value: 2.15%); assay type: functional
# [21] = test system: MCF7; experiment: Induction of apoptosis in human MCF7 cells assessed as early apoptotic cells at 20 uM after 48 hrs by caspase 3/7 staining-based flow cytometry (reference value: 2.65%); assay type: functional
# [22] = test system: PC-3; experiment: Induction of apoptosis in human PC3 cells assessed as early apoptotic cells at 20 uM after 48 hrs by annexin V-propidium iodide staining-based flow cytometry (reference value: 1.55%); assay type: functional
# [23] = test system: A549; experiment: Induction of mitochondrial membrane depolarization in human A549 cells assessed as depolarized live cells at 20 uM after 48 hrs by 7-AAD/Muse mito-potential dye-based assay (reference value: 3.84%); assay type: functional
# [24] = test system: A549; experiment: Induction of ROS generation in human A549 cells assessed as accumulation at M2 phase at 20 uM after 48 hrs flow cytometry (reference value: 1.07%); assay type: functional
# [25] = test system: A549; experiment: Induction of apoptosis in human A549 cells assessed as early apoptotic cells at 20 uM after 48 hrs by annexin V-propidium iodide staining-based flow cytometry (reference value: 3.75%); assay type: functional
# [26] = test system: MCF7; experiment: Induction of apoptosis in human MCF7 cells assessed as viable cells at 20 uM after 48 hrs by annexin V-propidium iodide staining-based flow cytometry (reference value: 90.25%); assay type: functional; details: MCF7, 48 h, read-out: Activity
# [27] = test system: MCF7; experiment: Induction of ROS generation in human MCF7 cells assessed as accumulation at M1 phase at 20 uM after 48 hrs flow cytometry (reference value: 97.67%); assay type: functional
# [28] = test system: A549; experiment: Induction of apoptosis in human A549 cells assessed as viable cells at 20 uM after 48 hrs by caspase 3/7 staining-based flow cytometry (reference value: 94.25%); assay type: functional; details: A549, 48 h, read-out: Activity
# [29] = test system: A549; experiment: Induction of apoptosis in human A549 cells assessed as necrotic cells at 20 uM after 48 hrs by annexin V-propidium iodide staining-based flow cytometry (reference value: 1.4%); assay type: functional
# [30] = test system: PC-3; experiment: Induction of ROS generation in human PC3 cells assessed as accumulation at M2 phase at 20 uM after 48 hrs flow cytometry (reference value: 0.33%); assay type: functional
# [31] = test system: PC-3; experiment: Induction of apoptosis in human PC3 cells assessed as late apoptotic cells at 20 uM after 48 hrs by caspase 3/7 staining-based flow cytometry (reference value: 1.90%); assay type: functional
# [32] = test system: MCF7; experiment: Induction of apoptosis in human MCF7 cells assessed as late apoptotic cells at 20 uM after 48 hrs by annexin V-propidium iodide staining-based flow cytometry (reference value: 7.25%); assay type: functional
# [33] = test system: A549; experiment: Induction of mitochondrial membrane depolarization in human A549 cells assessed as depolarized dead cells at 20 uM after 48 hrs by 7-AAD/Muse mito-potential dye-based assay (reference value: 7.88%); assay type: functional
# [34] = test system: A549; experiment: Induction of mitochondrial membrane depolarization in human A549 cells assessed as dead cells at 20 uM after 48 hrs by 7-AAD/Muse mito-potential dye-based assay (reference value: 2.44%); assay type: functional
# [35] = test system: PC-3; experiment: Induction of ROS generation in human PC3 cells assessed as accumulation at M1 phase at 20 uM after 48 hrs flow cytometry (reference value: 99.67%); assay type: functional
# [36] = test system: PC-3; experiment: Growth inhibition of human PC3 cells after 72 hrs by ATP bioluminescence assay; assay type: functional, cell-based; details: PC-3, 72 h
# [37] = test system: A549; experiment: Induction of apoptosis in human A549 cells assessed as late apoptotic cells at 20 uM after 48 hrs by annexin V-propidium iodide staining-based flow cytometry (reference value: 3.05%); assay type: functional
# [38] = test system: MCF7; experiment: Induction of ROS generation in human MCF7 cells assessed as accumulation at M2 phase at 20 uM after 48 hrs flow cytometry (reference value: 2.33%); assay type: functional
# [39] = test system: MCF7; experiment: Induction of apoptosis in human MCF7 cells assessed as viable cells at 20 uM after 48 hrs by caspase 3/7 staining-based flow cytometry (reference value: 85.30%); assay type: functional; details: MCF7, 48 h, read-out: Activity
# [40] = test system: MCF7; experiment: Induction of mitochondrial membrane depolarization in human MCF7 cells assessed as dead cells at 20 uM after 48 hrs by 7-AAD/Muse mito-potential dye-based assay (reference value: 2.30%); assay type: functional
# [41] = test system: PC-3; experiment: Induction of apoptosis in human PC3 cells assessed as necrotic cells at 20 uM after 48 hrs by annexin V-propidium iodide staining-based flow cytometry (reference value: 2.45%); assay type: functional
# [42] = test system: PC-3; experiment: Induction of mitochondrial membrane depolarization in human PC3 cells assessed as dead cells at 20 uM after 48 hrs by 7-AAD/Muse mito-potential dye-based assay (reference value: 2.20%); assay type: functional
# [43] = test system: A549; experiment: Growth inhibition of human A549 cells at 20 uM after 72 hrs by SRB assay; assay type: functional, cell-based
# [44] = test system: MCF7; experiment: Induction of mitochondrial membrane depolarization in human MCF7 cells assessed as depolarized live cells at 20 uM after 48 hrs by 7-AAD/Muse mito-potential dye-based assay (reference value: 6.67%); assay type: functional
# [45] = test system: A549; experiment: Growth inhibition of human A549 cells at 20 uM after 72 hrs by ATP bioluminescence assay; assay type: functional, cell-based
# [46] = test system: MCF7; experiment: Induction of apoptosis in human MCF7 cells assessed as necrotic cells at 20 uM after 48 hrs by caspase 3/7 staining-based flow cytometry (reference value: 1.25%); assay type: functional
# [47] = test system: PC-3; experiment: Induction of apoptosis in human PC3 cells assessed as viable cells at 20 uM after 48 hrs by caspase 3/7 staining-based flow cytometry (reference value: 94.75%); assay type: functional; details: PC-3, 48 h, read-out: Activity
# [48] = test system: PC-3; experiment: Induction of mitochondrial membrane depolarization in human PC3 cells assessed as live cells at 20 uM after 48 hrs by 7-AAD/Muse mito-potential dye-based assay (reference value: 83.15%); assay type: functional
# [49] = test system: A549; experiment: Induction of mitochondrial membrane depolarization in human A549 cells assessed as live cells at 20 uM after 48 hrs by 7-AAD/Muse mito-potential dye-based assay (reference value: 85.84%); assay type: functional
# [50] = test system: PC-3; experiment: Induction of mitochondrial membrane depolarization in human PC3 cells assessed as depolarized live cells at 20 uM after 48 hrs by 7-AAD/Muse mito-potential dye-based assay (reference value: 12.60%); assay type: functional
# [51] = test system: A549; experiment: Induction of apoptosis in human A549 cells assessed as necrotic cells at 20 uM after 48 hrs by caspase 3/7 staining-based flow cytometry (reference value: 1.50%); assay type: functional
# [52] = test system: PC-3; experiment: Induction of apoptosis in human PC3 cells assessed as necrotic cells at 20 uM after 48 hrs by caspase 3/7 staining-based flow cytometry (reference value: 3.05%); assay type: functional
# [53] = test system: A549; experiment: Induction of apoptosis in human A549 cells assessed as late apoptotic cells at 20 uM after 48 hrs by caspase 3/7 staining-based flow cytometry (reference value: 2.56%); assay type: functional
# [54] = test system: SW-620; experiment: Antiproliferative activity against human SW620 cells after 48 hrs by MTT assay; assay type: functional, cell-based; details: SW-620, 48 h
# [55] = test system: HCT-116; experiment: Antiproliferative activity against human HCT116 cells after 48 hrs by MTT assay; assay type: functional, cell-based; details: HCT-116, 48 h
# [56] = test system: CT26.WT; experiment: Antiproliferative activity against mouse CT26.WT cells after 48 hrs by MTT assay; assay type: functional, cell-based
structure (smiles),measurement,setting,value
CCOc1cccc2cc(C(=O)/C=C/c3ccc(OC)cc3)oc12,growth inhibition (GI),[1],Active
same,growth inhibition (GI),[2],Active
CCOc1cccc2cc(C(=O)/C=C/c3ccc(N(C)C)cc3)oc12,Activity,[3],7.75%
same,Activity,[4],59.7%
same,Activity,[5],Active
same,Activity,[6],24.3%
same,Activity,[7],0.65%
same,Activity,[8],41%
same,Activity,[9],79.33%
same,IC50,[10],9 µM
same,viability at 20 µM,[11],2.8%
same,Activity,[12],0.7%
same,IC50,[13],2 µM
same,Activity,[14],13.5%
same,Activity,[15],Active
same,Activity,[16],Active
same,Activity,[17],18.6%
same,growth inhibition (GI),[1],Active
same,growth inhibition (GI),[18],Active
same,viability at 20 µM,[19],26.9%
same,Activity,[20],4.3%
same,Activity,[21],45%
same,Activity,[22],6.45%
same,Activity,[23],50.57%
same,Activity,[24],20.67%
same,Activity,[25],1.8%
same,viability at 20 µM,[26],3.3%
same,Activity,[27],85.13%
same,viability at 20 µM,[28],23.1%
same,Activity,[29],0.2%
same,Activity,[30],1.17%
same,Activity,[31],11.1%
same,Activity,[32],91.7%
same,Activity,[33],32.78%
same,Activity,[34],1.35%
same,Activity,[35],98.83%
same,IC50,[36],10 µM
same,Activity,[37],95.2%
same,Activity,[38],14.87%
same,viability at 20 µM,[39],13.8%
same,Activity,[40],54.3%
same,Activity,[41],6.9%
same,Activity,[42],19.15%
same,growth inhibition (GI),[43],Active
same,Activity,[44],7.9%
same,growth inhibition (GI),[2],Active
same,growth inhibition (GI),[45],Active
same,Activity,[46],0.26%
same,viability at 20 µM,[47],51%
same,Activity,[48],31.75%
same,Activity,[49],15.29%
same,Activity,[50],30.5%
same,Activity,[51],10.5%
same,Activity,[52],37.25%
same,Activity,[53],58.7%
CCOc1cccc2cc(C(=O)/C=C/c3cccs3)oc12,growth inhibition (GI),[1],Active
same,growth inhibition (GI),[2],Active
CCOc1cccc2cc(C(=O)/C=C/c3ccco3)oc12,growth inhibition (GI),[1],Active
same,growth inhibition (GI),[2],Active
COc1ccccc1/C=C/C(=O)c1ccc(O)c(O)c1,IC50,[54],11.7 µM
same,IC50,[55],25.9 µM
same,IC50,[56],3.36 µM
